Square brackets hold non-standard residues; d marks the D form. Peptide text beside a SMILES is read from it. dTrp(2-Me) = Cc1[nH]c2ccccc2c1C[C@@H](N)C(=O)O
Tested on: plasma GH concentrations
Assay: Growth hormone releasing activity in the infant rat (plasma GH by RIA)
Assay type: in vivo, Sprague Dawley rats
Details: male 10-day-old rats, 300 μg/kg subcutaneously, plasma 15 min later
Protocol: Male 10-day-old Sprague Dawley rats, about 25 g body weight were used.
One hour before the experiments, pups were separated from their respective dams and were divided randomly into groups of eight each.
Pups were acutely challenged subcutaneously with 100 μl of solvent (DMSO, final dilution 1:300 in physiological saline), hexarelin (Tyr-Ala-His-D-Mrp-Ala-Trp-D-Phe-Lys-NH2, used as a reference drug), or new compounds (300 μg/kg) and killed by decapitation 15 min later.
Trunk blood was collected and centrifuged immediately. Plasma samples were stored at −20° C. until assayed for the determination of plasma GH concentrations.
Growth hormone concentrations in plasma were measured by RIA using materials provided by the National Institute of Diabetes, Digestive and Kidney Diseases (NIDDK) of the National Institute of Health U.S.A.
Values were expressed in terms of the NIDDK-rat-GH-RP-2 standard (potency 21 U/mg) as ng/ml of plasma.
The minimum detectable value of rat GH was about 1.0 ng/ml, and intraassay variability was about 6%.

With `CC(C)(N)C(=O)NC(Cc1c[nH]c2ccccc12)C(=O)NC(CC1CNc2ccccc21)NC=O` (racemic) [Example 48, H-Aib-(D)-Trp-(D)-3(R/S)-Dht-formyl] the GH (Table 6 test series) was 17.49 ± 2.40 ng/mL.
`CNC(C)(C)C(=O)NC(Cc1c[nH]c2ccccc12)C(=O)NC(CC1CNc2ccccc21)NC(C)=O` (racemic) [Example 50, N(Me)-Aib-(D)-Trp-(D)-3(R/S)-gDht-acetyl] showed a GH (Table 6 test series) of 11.17 ± 1.35 ng/mL.
Compound `CNC(C)(C)C(=O)NC(CC1CNc2ccccc21)C(=O)NC(Cc1c[nH]c2ccccc12)NC(C)=O` (racemic) [Example 51, N(Me)-Aib-(D)-3(R/S)-Dht-(D)-gTrp-acetyl] has a GH (Table 6 test series) of 19.38 ± 4.16 ng/mL.
For `CNC(C)(C)C(=O)NC(Cc1c[nH]c2ccccc12)C(=O)NC(Cc1c[nH]c2ccccc12)NC=O` [Example 3, N-Me-Aib-D-Trp-D-gTrp-CHO], the GH (Table 2 test series) was 86.6 ± 12.6 ng/mL.
In the case of `CC(=O)NC(Cc1c[nH]c2ccccc12)NC(=O)C(Cc1c[nH]c2ccccc12)NC(=O)C(C)(C)N` [Example 4, H-Aib-D-Trp-D-gTrp-C(O)CH3], the GH (Table 2 test series) is reported as 104.7 ± 13.5 ng/mL.
`CNC(C)(C)C(=O)N[C@H](Cc1c[nH]c2ccccc12)C(=O)N[C@H](Cc1c[nH]c2ccccc12)NC(C)=O` [Example 5, N-Me-Aib-D-Trp-D-gTrp-C(O)CH3] was tested, and the GH (Table 2 test series) was 175.5 ± 37.2 ng/mL.
`O=CNC(Cc1c[nH]c2ccccc12)NC(=O)C(Cc1c[nH]c2ccccc12)NC(=O)C1CCNCC1` [Example 8, Isonipecotyl-D-Trp-D-gTrp-CHO] gave a GH (Table 3 test series) of 94.2 ± 8.6 ng/mL.
`CC(=O)NC(Cc1c[nH]c2ccccc12)NC(=O)C(Cc1c[nH]c2ccccc12)NC(=O)C1CCNCC1` [Example 9, Isonipecotyl-D-Trp-D-gTrp-C(O)CH3] showed a GH (Table 3 test series) of 61.2 ± 10.8 ng/mL.
`CC(C)(N)C(=O)NC(Cc1c[nH]c2ccccc12)C(=O)NC(Cc1c[nH]c2ccccc12)NC=O` (centres unmarked) [Example 13, H-Aib-(D)-Trp-gTrp-CHO] showed a GH (Table 1 test series) of 58 ± 6.3 ng/mL.
`CCC(=O)NC(Cc1c[nH]c2ccccc12)NC(=O)C(Cc1c[nH]c2ccccc12)NC(=O)C(C)(C)N` [Example 19, Aib-D-Trp-gTrp-CO—CH2—CH3] gave a GH (Table 3 test series) of 79.8 ± 22.4 ng/mL.
With `CC(C)(N)C(=O)NC(Cc1c[nH]c2ccccc12)C(=O)NC(Cc1c[nH]c2ccccc12)NC(=O)C1CCNCC1` [Example 22, Aib-D-Trp-gTrp-CO-piperidin-4-yl] the GH (Table 3 test series) was 153.6 ± 30.6 ng/mL.
Work on `CNC(C)(C)C(=O)NC(Cc1c[nH]c2ccccc12)C(=O)NC(Cc1c[nH]c2ccccc12)NC(=O)C1CCNCC1` [Example 39, N-Me-Aib-D-Trp-D-gTrp-Isonipecotyl] yielded a GH (Table 4 test series) of 97.1 ± 21.0 ng/mL.
`CNC(C)(C)C(=O)N[C@H](Cc1c[nH]c2ccccc12)C(=O)N(C)[C@H](Cc1c[nH]c2ccccc12)NC(C)=O` [Example 40, N-Me-Aib-D-Trp-N-Me-D-gTrp-C(O)CH3] was tested, and the GH (Table 4 test series) was 188.2 ± 28.5 ng/mL.
In the case of `CC(C)(N)C(=O)NC(Cc1cccc2ccccc12)C(=O)NC(Cc1cccc2ccccc12)NC=O` (centres unmarked) [Example 42, H-Aib-(D)-1-Nal-g-(D)-1-Nal-formyl], the GH (Table 5 test series) is reported as 25.05 ± 06.00 ng/mL.
`CC(C)(N)C(=O)NC(Cc1ccc2ccccc2c1)C(=O)NC(Cc1ccc2ccccc2c1)NC=O` (centres unmarked) [Example 43, H-Aib-(D)-2-Nal-g-(D)-2-Nal-formyl] was tested, and the GH (Table 5 test series) was 37.33 ± 19.74 ng/mL.
`CC(C)(N)C(=O)NC(Cc1ccc2ccccc2c1)C(=O)NC(Cc1c[nH]c2ccccc12)NC=O` (centres unmarked) [Example 45, H-Aib-(D)-2-Nal-(D)-gTrp-formyl] gave a GH (Table 5 test series) of 13.91 ± 03.87 ng/mL.
In the case of `CC(C)(N)C(=O)N[C@H](Cc1c[nH]c2ccccc12)C(=O)NC(Cc1cccc2ccccc12)NC=O` (some centres unmarked) [Example 46, H-Aib-(D)-Trp-g-(D)-1-Nal-formyl], the GH (Table 5 test series) is reported as 8.26 ± 01.09 ng/mL.
In the case of `CC(C)(N)C(=O)NC(Cc1c[nH]c2ccccc12)C(=O)NC(Cc1ccc2ccccc2c1)NC=O` [Example 47, H-Aib-D-Trp-g-D-2-Nal-formyl], the GH (Table 5 test series) is reported as 9.04 ± 04.03 ng/mL.
In the case of `CN(C)C(C)(C)C(=O)NC(Cc1c[nH]c2ccccc12)C(=O)NC(Cc1c[nH]c2ccccc12)NC=O` (centres unmarked) [Example 52, N(Me)2-Aib-(D)-Trp-(D)-gTrp-formyl], the GH (Table 7 test series) is reported as 121.43 ± 29 ng/mL.
`CC(=O)NC(Cc1c[nH]c2ccccc12)NC(=O)C(Cc1c[nH]c2ccccc12)NC(=O)C(C)(C)N(C)C` (centres unmarked) [Example 53, N(Me)2-Aib-(D)-Trp-(D)-gTrp-acetyl] was tested, and the GH (Table 7 test series) was 26.80 ± 5.64 ng/mL.
Work on `NC1(C(=O)NC(Cc2c[nH]c3ccccc23)C(=O)NC(Cc2c[nH]c3ccccc23)NC=O)CC1` (centres unmarked) [Example 54, H-Acc^3-(D)-Trp-(D)-gTrp-formyl] yielded a GH (Table 9 test series) of 7.89 ± 3.20 ng/mL.
For `NC1(C(=O)NC(Cc2c[nH]c3ccccc23)C(=O)NC(Cc2c[nH]c3ccccc23)NC=O)CCCC1` (centres unmarked) [Example 55, H-Acc^5-(D)-Trp-(D)-gTrp-formyl], the GH (Table 9 test series) was 11.46 ± 1.18 ng/mL.
With `NC1(C(=O)NC(Cc2c[nH]c3ccccc23)C(=O)NC(Cc2c[nH]c3ccccc23)NC=O)CCCCC1` (centres unmarked) [Example 56, H-Acc^6-(D)-Trp-(D)-gTrp-formyl] the GH (Table 9 test series) was 8.49 ± 0.40 ng/mL.
Work on `CCCC(N)(CCC)C(=O)NC(Cc1c[nH]c2ccccc12)C(=O)NC(Cc1c[nH]c2ccccc12)NC=O` (centres unmarked) [Example 57, H-Dpg-(D)-Trp-(D)-gTrp-formyl] yielded a GH (Table 9 test series) of 18.38 ± 2.88 ng/mL.
With `CCNC(=O)NC(Cc1c[nH]c2ccccc12)NC(=O)C(Cc1c[nH]c2ccccc12)NC(=O)C(C)(C)N` (centres unmarked) [Example 58, H-Aib-(D)-Trp-(D)-gTrp-C(O)NHCH2CH3] the GH (Table 10 test series) was 376.48 ± 43.24 ng/mL.
Work on `CCNC(=O)NC(Cc1c[nH]c2ccccc12)NC(=O)C(Cc1c[nH]c2ccccc12)NC(=O)C(C)(C)NC` (centres unmarked) [Example 59, N-Me-Aib-(D)-Trp-(D)-gTrp-C(O)NHCH2CH3] yielded a GH (Table 10 test series) of 179.53 ± 24.65 ng/mL.
For `CC(C)(N)C(=O)NC(C)(Cc1c[nH]c2ccccc12)C(=O)NC(Cc1c[nH]c2ccccc12)NC=O` [Example 60, H-Aib-(R)—Me-Trp-(D)-gTrp-formyl], the GH (Table 8 test series) was 21.02 ± 3.43 ng/mL.
Compound `CC(Cc1c[nH]c2ccccc12)(NC=O)NC(=O)C(Cc1c[nH]c2ccccc12)NC(=O)C(C)(C)N` [Example 61, H-Aib-(D)-Trp-(R)-Me-gTrp-formyl] has a GH (Table 8 test series) of 152.28 ± 43.76 ng/mL.
With `CNC(C)(C)C(=O)NC(Cc1c[nH]c2ccccc12)C(=O)NC(C)(Cc1c[nH]c2ccccc12)NC(C)=O` [Example 62, H-Me-Aib-(D)-Trp-(R)-Me-gTrp-acetyl] the GH (Table 8 test series) was 171.78 ± 10.32 ng/mL.
`Cc1[nH]c2ccccc2c1C[C@@H](NC(=O)[C@@H](N)Cc1cnc[nH]1)C(=O)N[C@@H](C)C(=O)N[C@@H](Cc1c[nH]c2ccccc12)C(=O)N[C@H](Cc1ccccc1)C(=O)N[C@@H](CCCCN)C(N)=O` [HEXARELIN, Tyr-Ala-His-D-Mrp-Ala-Trp-D-Phe-Lys-NH2, reference compound] (H-H[dTrp(2-Me)]AW[dF]K-NH2) was tested, and the GH (Table 1 test series) was 202 ± 32.7 ng/mL, the GH (Table 2 test series) was 134.5 ± 27.2 ng/mL and the GH (Table 3 test series) was 114.7 ± 8.4 ng/mL. For the same compound, the GH (Table 4 test series) was 114.5 ± 12.9 ng/mL, the GH (Table 5 test series) was 276.01 ± 23.5 ng/mL and the GH (Table 6 test series) was 91.61 ± 4.09 ng/mL. For the same compound, the GH (Table 7 test series) was 172.5 ± 38.53 ng/mL, the GH (Table 8 test series) was 172.5 ± 38.53 ng/mL and the GH (Table 9 test series) was 89.91 ± 3.04 ng/mL. For the same compound, the GH (Table 10 test series) was 172.5 ± 38.53 ng/mL.
Compound “H-Aib-(D)-1-Nal-(D)-gTrp-formyl [Example 44]” has a GH (Table 5 test series) of 15.04 ± 03.30 ng/mL.
“H-Aib-(D)-3(R/S)-Dht-g-(D)-Trp-formyl [Example 49]” gave a GH (Table 6 test series) of 24.35 ± 4.85 ng/mL.
“H-Aib-D-Trp-N-Me-D-gTip-C(O)CH3 [Example 41]” showed a GH (Table 4 test series) of 75.4 ± 15.0 ng/mL.
Pip-D-Trp-D-gTrp-C(O)CH3 [Example 7] showed a GH (Table 3 test series) of 53.1 ± 6.6 ng/mL.
Pip-D-Trp-D-gTrp-CHO [Example 6] showed a GH (Table 3 test series) of 109.7 ± 10.1 ng/mL.

Reference: patent US6861409B2, “Growth hormone secretagogues” (Zentaris AG, priority 2000, dated 2005)
